Test results published in a compilation of properties of binary mixtures (doi:10.1021/acs.jced.1c00924).

Assay: xn = mol fraction of the nth substance listed
Conditions: 100 kPa

CCOP(=O)([O-])OCC.CC[n+]1ccn(C)c1 + CCO
viscosity [mPa·s]
Conditions | 293.15 K | 298.15 K | 303.15 K | 308.15 K | 313.15 K | 318.15 K | 323.15 K | 328.15 K | 333.15 K | 338.15 K
x1 = 0.1002 | 3.82 | 3.46 | 3.1 | 2.8 | 2.58 | 2.39 | 2.28 | – | 2.05 | 1.94
x1 = 0.1992 | 8.71 | 7.58 | 6.67 | 5.96 | 5.38 | 4.92 | 4.57 | – | 4.06 | 3.86
x1 = 0.2987 | 18.6 | 15.84 | 13.57 | 11.74 | 10.35 | 9.23 | 8.34 | 7.65 | 7 | 6.48
x1 = 0.4007 | 35.9 | – | – | 20.9 | 18 | 15.6 | 13.64 | 12.11 | – | 9.9
x1 = 0.5007 | 65.5 | 52 | 41.8 | 34.4 | 28.6 | 24 | 20.8 | 18.1 | 15.82 | 13.95
x1 = 0.5993 | 106.8 | 83 | 64.6 | 51.6 | 41.6 | 34.2 | 28.8 | – | 20.8 | 18.1
x1 = 0.7003 | – | – | 102.1 | – | 63.3 | 50.3 | – | 33.5 | 28.1 | –
x1 = 0.8 | 256 | 187 | – | 107.6 | 82.5 | 65.4 | 52.6 | 42.7 | 35 | 29.3
x1 = 0.8985 | – | 271 | – | 146.8 | 112.5 | – | 68.7 | 54.6 | 44.5 | 36.5
x1 = 1 | – | 397 | 285 | 209 | – | 117.2 | 91.7 | 71.2 | 57.3 | 46.2

CCO + CCOP(=O)([O-])OCC.CC[n+]1ccn(C)c1
x2 = 0
Conditions | viscosity [mPa·s]
293.15 K | 1.18
298.15 K | 1.11
303.15 K | 0.98
308.15 K | 0.89
313.15 K | 0.82
323.15 K | 0.69
328.15 K | 0.65
333.15 K | 0.6
338.15 K | 0.56
